According to PMC6813295, “A tumour-selective cascade activatable self-detained system for drug delivery and cancer imaging” (Nature Communications, 2019):
Where a SMILES comes first, the peptide text is derived from it. The star is where a group is joined. X1 = CC1(C)C(=CC=C2CCCC(C=CC3=[N+](CCCCCC(=O)O)c4ccccc4C3(C)C)=C2*)N(CCCCCC(=O)O)c2ccccc21

Target: T1, recombinant human caspase-3 (Homo sapiens, UniProt P42574)
T1 construct: purchased Sigma-Aldrich Chemical Co
T1 sequence (P42574 29-175 limits assumed): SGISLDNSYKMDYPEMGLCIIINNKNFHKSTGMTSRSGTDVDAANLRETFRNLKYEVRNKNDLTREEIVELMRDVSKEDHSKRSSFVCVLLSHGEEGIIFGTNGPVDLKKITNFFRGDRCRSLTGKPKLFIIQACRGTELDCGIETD
T1 sequence (P42574 176-277 limits assumed): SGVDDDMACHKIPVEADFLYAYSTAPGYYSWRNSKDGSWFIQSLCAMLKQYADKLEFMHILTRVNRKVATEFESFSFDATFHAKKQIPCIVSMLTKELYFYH
Experiment: Caspase-3 cleavage (HPLC) and induced self-assembly (TEM) in HEPES buffer
Type: biochemical
Settings: caspase-3 2 h, substrate-to-enzyme ratio 1 μM/U, HEPES buffer 50 mM pH 7.4, TEM
Protocol: Fig. 2 The structure conformations and self-assembly properties of molecule 1 in aqueous solution. a Illustration of the self-assembly strategy of molecule 1. b CD spectra of molecule 1 and molecule 4 in deionized water at a concentration of 1 μM. c FTIR spectra of molecule 1 in a monomeric state and molecule 4 in a fibrous assembled state. The arrows identify the typical characteristic peaks of the antiparallel β-sheet structure. d TEM image of self-assembled β-sheet nanofibrils of molecule 1 after treatment with caspase-3 (substrate-to-enzyme ratio of 1 μM/U) in HEPES buffer (50 mM, pH 7.4) for 2 h. The manual measurement of the nanofibril diameter is shown in the zoomed image, and the computational simulation result for the length of molecule 4 is inserted. e WAXS and computational simulation results of the β-sheet self-assemblies (molecule 4) identified the β-sheet and laminate spacing of the structures. f The concentration-dependent CD spectra of molecule 4 in the concentration range of 0.5–10 μM. g Time-dependent TEM images of molecule 4 from 10 min to 12 h for monitoring the growth process of the nanofibrous structures. h Temperature-dependent CD intensity changes at 220 nm of molecules 1 and 4 with a heating rate of 1 °C/min and an equilibrium period of 30 s to reveal the self-assembly mechanisms. Scale bar: 100 nm […]

CC[C@H](C)[C@H](NC(=O)[C@@H]1CCCN1C(=O)[C@@H](NC(=O)[C@H](C)N)C(C)C)C(=O)N[C@@H](C)C(=O)N[C@@H](CCC(N)=O)C(=O)N[C@@H](CCCCN)C(=O)N[C@@H](CC(=O)O)C(=O)N[C@@H](CCC(=O)O)C(=O)N[C@H](C(=O)N[C@@H](CC(=O)O)C(=O)N[C@@H](CCCCN)C(=O)N[C@@H](CC(C)C)C(=O)N[C@H](C(=O)N[C@@H](Cc1ccccc1)C(=O)N[C@@H](Cc1ccccc1)C(=O)N[C@@H](C)C(=O)N[C@@H](CCC(=O)O)C(=O)N[C@@H](CSC1=C(C=CC2=[N+](CCCCCC(=O)O)c3ccccc3C2(C)C)CCCC1=CC=C1N(CCCCCC(=O)O)c2ccccc2C1(C)C)C(=O)NCC(=O)O)C(C)C)C(C)C [molecule 1] (H-AVPIAQKDEVDKLVFFAEC(X1)G-OH)
diameter of nanofibrils after incubation with caspase-3: approximately 5.8 ± 0.6 nm
